Legend:
[1] = Biodistribution of 14C-CA4P following periocular injection; assay type: in vivo, New Zealand rabbits
Description: (§1) ^14C-CA4P (OXiGENE Inc., Watertown, Mass.) was resuspended in 100 ul volume of saline solution and injected with a 30 G needle into the right eyes of anesthesized male New Zealand rabbits (4 months old, 1.8-2.5 kg, n=3 per sample). Three different concentrations of ^14C-CA4P were tested (1, 10, 100 mg/ml) corresponding to doses of 1, 5, and 5 uCi of applied radioactivity respectively. A blank control group was also included. Rabbits were anaesthetized at 1, 6, 24, and 48 hours for blood sampling. After blood collection, the animals were euthanized by Phenobarbital injection and the treated right eyes were removed from all test animals. Ocular tissue samples were dissected from the cornea, aqueous humor, vitreous humor, choroid, or retina, placed in 20-mi glass scintillation vials, vortexed, and incubated for 24 hrs with 500 ul digesting fluid. Plasma was separated from whole blood by centrifugation (1,800 g for 10 minutes). Both ocular tissue samples and plasma were incubated at room temperature with 16 ml of Hionic Fluor™ scintillation fluid for a period of 24 hours prior to radioactivity counting. Each sample was counted for 5 minutes in a Betamatic V counter (Bio-Tek Kontron Instruments, St Quentin en Yvelines, France). The conversion of counts per minute (“cpm”) into disintegrations per minute (“dpm”) was performed automatically by the beta-counter, using calibration curves obtained from ^14C-standards and quenching curves from the respective blank matrices spiked with ^14C-standards. The concentration of drug was determined according to nanogram equivalents of CA4P (ng-Eq/g of tissue) which was calculated from the measured dpm value, the weight of the tissue specimen, and the specific activity of the drug (0.37 mCi/mg), followed by subtraction of the corresponding background value from control eye tissue. A tissue concentration of 1 uM CA4P is equal to […] tissue.

[2] = test system: ocular neovascularization; assay: LHP-induced ocular neovascularization, intravenous treatment; assay type: in vivo, rabbit; details: 40 mg/kg i.v. once a day for five days; eyes examined seven days later
Description: To simulate pathogenic ocular angiogenesis, ocular neovascularization was induced by administration of lipid hydroperoxide (LHP) by intra-corneal injection at a dosage of 30 μg to rabbit eyes. Seven to 14 days later, ocular vessels formed in the injected eyes due to LHP insult. The subjects were divided into two groups; those of one group were given combretastatin A4 disodium phosphate by intravenous administration at a dosage of 40 mg/kg once a day for five days, while a vehicle without combretastatin A4 disodium phosphate was administered to the other group by i.v. administration as a dosage of water for the same time period. The eyes of both groups were examined seven days later.

[3] = Intraocular irritation following intravitreal injection; assay type: in vivo, rabbits; details: for Mean cell counts in the vitreous fluid (white blood cells): 0.2 ml intravitreal, about 48 h, <=200 acceptable
Description: The test article, CA4P, was evaluated for the potential to cause intraocular irritation following intravitreal injection in rabbits. Following general anesthesia, a 0.2 ml dose of CA4P was administered to the right eyes of eight rabbits. A 0.2 ml dose of 0.9% sodium chloride USP solution was administered to the left eyes of the rabbits to serve as a negative control. Four different concentrations of CA4P were tested. Each of the four concentrations (0.1 mg/ml, 1.0 mg/ml, 10 mg/ml and 100 mg/ml) were dosed to the right eyes of two rabbits. Approximately 48 hours after the treatment, the eyes were examined with a biomicroscopic slit-lamp and an indirect ophthalmoscope. The scores were recorded and the rabbits were euthanized. Immediately after euthanasia, samples of vitreous fluid were drawn and white blood cell counts were determined with a hemacytometer. Counts less than or equal to 200 cells/mm^3 were considered to be acceptable.

[4] = test system: corneal neovascularization; assay: LHP-induced rabbit corneal neovascularization model, IP treatment; assay type: in vivo, New Zealand rabbits; details: late intervention, 50 mg/kg IP from Day 10 (Group 4)
[5] = Biodistribution of 14C-CA4P following topical administration of a solution formulation; assay type: in vivo, New Zealand rabbits
Description: as §1
Topical gels and solutions were developed for use as topical formulation suitable for the topical delivery of CA4P to the surface of the eye. Topical solutions (1, 3, and 10%) was directly prepared in 0.9% NaCl (Aguettant, Lyon, France) and sterilized with 0.2 um filter (pH 6.4 to 8.5, osmolarity 290 to 459 mosmol/kg H2O. Low viscosity topical gels (1,3,and 10%) were prepared in 0.5% carboxymethylcellulose (Sigma Aldrich Chimie, St. Quentin Fallavier Cedex, France) with 0.9% NaCl. The physicochemical specifications of each gel are listed in Table 5
Topical formulations were applied to the surface of right eyes at an applied dose of 5 uCi in a volume of 50 ul. Cornea was sampled instead of sclera. Samples were taken at […] and 24 hours.

[6] = Biodistribution of 14C-CA4P following intravitreal injection; assay type: in vivo, New Zealand rabbits
Description: as §1

Question: What does the source list for `COc1ccc(/C=C\c2cc(OC)c(OC)c(OC)c2)cc1OP(=O)([O-])[O-].[Na+].[Na+]` [CA4P, combretastatin A4 disodium phosphate]?
Answer: Cmax ([1]; choroid, 1 mg/ml periocular): 14.3 µM; Cmax ([1]; choroid, 10 mg/ml periocular): 74.5 µM; Cmax ([1]; choroid, 100 mg/ml periocular): 1040 µM; Time of highest concentrations of drug in the eye ([1]; periocular injection): within the first hour; Cmax ([1]; plasma, 1 mg/ml periocular): 0.07 µM; Cmax ([1]; plasma, 10 mg/ml periocular): 0.79 µM; Cmax ([1]; plasma, 100 mg/ml periocular): 12.3 µM; Concentration of drug delivered ([1]; retina and choroid, all administered doses, periocular): > 1 µM; Cmax ([1]; retina, 1 mg/ml periocular): 4.4 µM; Cmax ([1]; retina, 10 mg/ml periocular): 54 µM; Cmax ([1]; retina, 100 mg/ml periocular): 169 µM; Cmax ([1]; sclera, 1 mg/ml periocular): 18 µM; Cmax ([1]; sclera, 10 mg/ml periocular): 280 µM; Cmax ([1]; sclera, 100 mg/ml periocular): 3370 µM; Cmax ([1]; vitreous, 1 mg/ml periocular): 0.03 µM; Cmax ([1]; vitreous, 10 mg/ml periocular): 0.34 µM; Cmax ([1]; vitreous, 100 mg/ml periocular): 3.35 µM; Reduction of vessels [2]: ≥ 40%; Mean cell counts in the vitreous fluid (white blood cells) ([3]; 0.1 mg/ml): 9 cells/mm^3; Irritation on slit-lamp and ophthalmoscope examination ([3]; 1 mg/ml intravitreal, 2 rabbits): evidence of irritation was noted in one animal; Mean cell counts in the vitreous fluid (white blood cells) ([3]; 1 mg/ml): 962 cells/mm^3; Mean cell counts in the vitreous fluid (white blood cells) ([3]; 10 mg/ml): 10 cells/mg^3; Irritation and inflammation, ophthalmic exams and vitreous white blood cells ([3]; 100 mg/ml intravitreal, both animals): pronounced irritation and inflammation; Mean cell counts in the vitreous fluid (white blood cells) ([3]; 100 mg/ml): 409 cells/mm^3; Irritation (Draize Scores) ([3]; Intravitreal, <1 mg): No Irritation; Irritation and inflammation, ophthalmic exams and vitreous white blood cells ([3]; lower dose levels 0.1, 1.0 and 10 mg/ml intravitreal): no clear evidence of irritation or inflammation; Vessel Length on Day 24 [4]: 1.4 ± 0.46 mm; Cmax ([5]; aqueous humor, 1% topical solution): 0.6 µM; Cmax ([5]; aqueous humor, 3% topical solution): 1.9 µM; Cmax ([5]; aqueous humor, 10% topical solution): 4.1 µM; Cmax ([5]; choroid, 1% topical solution): 0.87 µM; Cmax ([5]; choroid, 3% topical solution): 1.9 µM; Cmax ([5]; choroid, 10% topical solution): 15.6 µM; Cmax ([5]; cornea, 1% topical solution, 50 ul): 10 µM; Cmax ([5]; cornea, 3% topical solution, 50 ul): 34 µM; Cmax ([5]; cornea, 10% topical solution, 50 ul): 104 µM; Concentration of drug delivered ([5]; cornea, all three solution formulations): > 1 µM; Cmax ([5]; plasma, 1% topical solution): 0.07 µM; Cmax ([5]; plasma, 3% topical solution): 0.84 µM; Cmax ([5]; plasma, 10% topical solution): 1.27 µM; Cmax ([5]; retina, 1% topical solution): 0.27 µM; Cmax ([5]; retina, 3% topical solution): 0.39 µM; Cmax ([5]; retina, 10% topical solution): 4.2 µM; Time of highest concentrations of drug in the eye ([5]; topical solution): within the first hour; Cmax ([6]; aqueous humor, 1 mg/ml intravitreal): 0.15 µM; Cmax ([6]; aqueous humor, 10 mg/ml intravitreal): 0.79 µM; Cmax ([6]; aqueous humor, 100 mg/ml intravitreal): 460 µM; Cmax ([6]; cornea, 1 mg/ml intravitreal): 95 µM; Cmax ([6]; cornea, 10 mg/ml intravitreal): 969 µM; Cmax ([6]; cornea, 100 mg/ml intravitreal): 5870 µM; Time of highest concentrations of drug in the eye ([6]; intravitreal injection): within the first hour; Cmax ([6]; plasma, 1 mg/ml intravitreal): 0.4 µM; Cmax ([6]; plasma, 10 mg/ml intravitreal): 0.2 µM; Cmax ([6]; plasma, 100 mg/ml intravitreal): 0.78 µM; Cmax ([6]; retina, 1 mg/ml intravitreal): 160 µM; Cmax ([6]; retina, 10 mg/ml intravitreal): 1980 µM; Cmax ([6]; retina, 100 mg/ml intravitreal): 10700 µM; Concentration of drug delivered ([6]; retina, all concentrations tested, intravitreal): > 1 µM; Cmax ([6]; sclera, 1 mg/ml intravitreal): 19 µM; Cmax ([6]; sclera, 10 mg/ml intravitreal): 153 µM; Cmax ([6]; sclera, 100 mg/ml intravitreal): 16100 µM; Cmax ([6]; vitreous, 1 mg/ml intravitreal): 75 µM; Cmax ([6]; vitreous, 10 mg/ml intravitreal): 757 µM; Cmax ([6]; vitreous, 100 mg/ml intravitreal): 10000 µM

Reference: patent US20040229960A1, “Compositions and methods of administering tubulin binding agents for the treatment of ocular diseases” (priority 2001, published 2004)
